Source: PMC12655371

Assay: derived from PAMPA membrane permeability
Conditions: n-hexadecane (PAMPA-derived); buffer (PAMPA)

Q: With CC(C)CN(C[C@@H](O)[C@H](Cc1ccccc1)NC(=O)O[C@H]1CCOC1)S(=O)(=O)c1ccc(N)cc1 as the compound, how does the “hexadecane/water partition coefficient derived from PAMPA flux (Khex/w)” value read?
A: The value was 0.01885 K (ratio).

Q: With CC(C)(C)c1ccc(C(O)CCCN2CCC(C(O)(c3ccccc3)c3ccccc3)CC2)cc1 (stereo not drawn) as the compound, how does the “hexadecane/water partition coefficient derived from PAMPA flux (Khex/w)” value read?
A: The value was 34105.6131886465 K (ratio).

Q: For CN1CCC[C@@H]1Cc1c[nH]c2ccc(CCS(=O)(=O)c3ccccc3)cc12, which “hexadecane/water partition coefficient derived from PAMPA flux (Khex/w)” value is on record?
A: Its value is 1.2 K (ratio).

Q: Which “hexadecane/water partition coefficient derived from PAMPA flux (Khex/w)” value does the source give for Cc1c(O)cccc1C(=O)N[C@@H](CSc1ccccc1)[C@H](O)CN1C[C@H]2CCCC[C@H]2C[C@H]1C(=O)NC(C)(C)C here?
A: Its value is 0.398 K (ratio).

Q: With Clc1ccc2c(c1)CCc1cccnc1C2=C1CCNCC1 as the compound, how does the “hexadecane/water partition coefficient derived from PAMPA flux (Khex/w)” value read?
A: The value was 99.11 K (ratio).

Q: With c1ccc2c(c1)Sc1ccccc1N2CC1CN2CCC1CC2 (stereo not drawn) as the compound, how does the “hexadecane/water partition coefficient derived from PAMPA flux (Khex/w)” value read?
A: The value was 2951 K (ratio).
